Source: article PMC6804044, “Design, Synthesis and Biological Evaluation of Pentacyclic Triterpene Derivatives: Optimization of Anti-ABL Kinase Activity” (Molecules, 2019)
Entries after “also recorded” stand apart in the source; their conditions may differ. Like-named read-outs stand apart in the source and are kept apart here.

Legend:
[1] = test system: peripheral blood mononuclear cells (PBMC); test: MTT cell viability assay, PBMC; format: cell-based; details: 24 h exposure
Procedure: (§1) A549 human lung carcinoma and HeLa human cervical carcinoma cell lines were cultured in Dulbecco’s Modified Eagle Medium (DMEM). MCF7 human breast cancer and leukemic (K562, HL-60, MT-2 and Jurkat) cells, and PBMC (Precision Bioservices, Frederic, MD, USA) were cultured in RPMI 1640. All media were purchased from FUJIFILM Wako (Osaka, Japan) and supplemented with 10% fetal bovine serum (FBS) (Sigma-Aldrich, St. Louis, MO, USA) and 89 μg/mL streptomycin (Meiji Seika Pharma, Tokyo, Japan) at 37 °C in a humid atmosphere and 5% CO2. In experiments, all cancer cell lines and PBMC were cultured in 24-well and 96-well plates (Iwaki brand Asahi Glass, Chiba, Japan) at 2 × 10^4 cells/mL and 1 × 10^6 cells/mL concentrations, respectively for 24 h.
(§2) The cells were exposed to various concentrations (1–100 μM) of the compounds for 24 h at 37 °C. The cells were then stained with MTT solution and incubated for additional 4 h. At the end of this period, supernatants were removed and 100 μL DMSO was added to each well to solubilize the formazan crystals. The absorbance of the solution was determined on the Infinitive M1000 (Tecan, Mannedorf, Switzerland) plate reader at a wavelength of 550 nm with background subtraction at 630 nm.

[2] = test system: CML cell line K562; test: MTT cell viability assay, K562; format: cell-based, human; details: for IC50: read-out: IC50 Values, K562 Cell Line; for SI (selectivity index): ratio of the IC50 between PBMC and K562 cells
Procedure: A549 human lung carcinoma and HeLa human cervical carcinoma cell lines were cultured in Dulbecco’s Modified Eagle Medium (DMEM). […] In experiments, all cancer cell lines and PBMC were cultured in 24-well and 96-well plates (Iwaki brand Asahi Glass, Chiba, Japan) at 2 × 10^4 cells/mL and 1 × 10^6 cells/mL concentrations, respectively for 24 h.
as §2, with “The” for “The cells were exposed to various concentrations (1–100 μM) of the compounds for 24 h at 37 °C. The”

[3] = test system: ERK1/2 and phosphorylated ERK1/2 in K562 cells; test: Immunoblot analysis of ERK signaling in K562; format: cell-based, human; details: K562, 10 μM, 6 h
Procedure: After 6 h of treatment at 37 °C, the cells were lysed in PBS-Laemmli sample buffer and then, immunoblot analysis was conducted using phospho-specific-p44/42 MAPK (Erk1/2) (Thr202/Tyr204) (D13.14.4E) XP Rabbit mAb (1:1000) (Cell Signaling Technology, Danvers, MA, USA) or anti-β-actin clone AC-15 (Sigma-Aldrich, St. Louis, MO, USA). For immunoreactivity detection, the chemiluminescence method was performed as previously described. The band intensity was measured using the ImageJ software (NIH, Bethesda, MD, USA).

[4] = test system: HeLa human cervical carcinoma; test: MTT cell viability assay, HeLa; format: cell-based; details: 24 h exposure
Procedure: as §1, §2

[5] = test system: K562 cells; test: Cell death detection (Hoechst 33342/annexin V/ethidium homodimer III staining); format: cell-based, human; details: K562, IC50 concentration, 8 h
Procedure: The cells were then briefly washed twice with 1 × binding buffer. A staining solution containing 50 μL of 1 × binding buffer and 5 μL of FITC-Annexin V solution, 5 μL of ethidium homodimer III solution, or 5 μL of Hoechst 33342 solution was added, and incubated for 15 min at room temperature in the dark. Then, the cells were washed with 1 × binding buffer, and analyzed by the all-in-one fluorescence microscope Biorevo Fluorescence BZ-9000 (Keyence, Osaka, Japan). The number of healthy cells (Hoechst 33342), apoptotic cells (Annexin V), late apoptotic or necrotic cells (Annexin V and Ethidium homodimer III) and necrotic cells (Ethidium homodimer III) were counted as previously described.

[6] = test system: A549 human lung carcinoma; test: MTT cell viability assay, A549; format: cell-based; details: for IC50: Homo sapiens, A549, MTT, 24 h exposure
Procedure: as §1, §2

[7] = test system: MT-2; test: MTT cell viability assay, MT-2; format: cell-based; details: Homo sapiens, MT2, 24 h exposure
Procedure: as §1, §2

[8] = test system: MCF7 human breast cancer; test: MTT cell viability assay, MCF7; format: cell-based; details: 24 h exposure
Procedure: as §1, §2

[9] = test system: HL-60; test: MTT cell viability assay, HL-60; format: cell-based; details: Homo sapiens, 24 h exposure
Procedure: as §1, §2

[10] = molecular target: T1, ABL1 kinase (Homo sapiens, UniProt P00519); test: ABL1 kinase inhibition (ADP-Glo Kinase Assay); format: biochemical; details: for IC50: ADP-Glo, 1 h incubation, room temperature
T1 construct: purchased Promega, Madison, WI, USA
Procedure: The ABL1 kinase profiling assay protocol was applied according to the manufacturer`s instructions (Promega, Madison, WI, USA) with the modification proposed in [36]. In this system, the ABL1 kinase and its substrate were diluted with 95 µL 2.5x Kinase Buffer and 15 µL of 100 µM ATP solutions, respectively. Then, the reaction of ABL1 kinase was performed using 2 µL of the compound solution at varying concentrations (0.1–30 µM), 4 µL of kinase working stock, and 4 µL of ATP/substrate working stock in the 384-well plate. After 1 h of incubation at room temperature, the activity of the ABL1 kinase was detected using the ADP-Glo Kinase Assay (Promega, Madison, WI, USA) and the inhibitory kinase activity of compounds in dose-response mode was measured by the Infinitive M1000 luminescence plate reader (Tecan, Groding, Austria).

[11] = test system: Jurkat; test: MTT cell viability assay, Jurkat; format: cell-based; details: Homo sapiens, 24 h exposure
Procedure: as §1, §2

[12] = Homo sapiens, K562, 24 h, MTT, 24 h exposure

T1 sequence (P00519 whole entry): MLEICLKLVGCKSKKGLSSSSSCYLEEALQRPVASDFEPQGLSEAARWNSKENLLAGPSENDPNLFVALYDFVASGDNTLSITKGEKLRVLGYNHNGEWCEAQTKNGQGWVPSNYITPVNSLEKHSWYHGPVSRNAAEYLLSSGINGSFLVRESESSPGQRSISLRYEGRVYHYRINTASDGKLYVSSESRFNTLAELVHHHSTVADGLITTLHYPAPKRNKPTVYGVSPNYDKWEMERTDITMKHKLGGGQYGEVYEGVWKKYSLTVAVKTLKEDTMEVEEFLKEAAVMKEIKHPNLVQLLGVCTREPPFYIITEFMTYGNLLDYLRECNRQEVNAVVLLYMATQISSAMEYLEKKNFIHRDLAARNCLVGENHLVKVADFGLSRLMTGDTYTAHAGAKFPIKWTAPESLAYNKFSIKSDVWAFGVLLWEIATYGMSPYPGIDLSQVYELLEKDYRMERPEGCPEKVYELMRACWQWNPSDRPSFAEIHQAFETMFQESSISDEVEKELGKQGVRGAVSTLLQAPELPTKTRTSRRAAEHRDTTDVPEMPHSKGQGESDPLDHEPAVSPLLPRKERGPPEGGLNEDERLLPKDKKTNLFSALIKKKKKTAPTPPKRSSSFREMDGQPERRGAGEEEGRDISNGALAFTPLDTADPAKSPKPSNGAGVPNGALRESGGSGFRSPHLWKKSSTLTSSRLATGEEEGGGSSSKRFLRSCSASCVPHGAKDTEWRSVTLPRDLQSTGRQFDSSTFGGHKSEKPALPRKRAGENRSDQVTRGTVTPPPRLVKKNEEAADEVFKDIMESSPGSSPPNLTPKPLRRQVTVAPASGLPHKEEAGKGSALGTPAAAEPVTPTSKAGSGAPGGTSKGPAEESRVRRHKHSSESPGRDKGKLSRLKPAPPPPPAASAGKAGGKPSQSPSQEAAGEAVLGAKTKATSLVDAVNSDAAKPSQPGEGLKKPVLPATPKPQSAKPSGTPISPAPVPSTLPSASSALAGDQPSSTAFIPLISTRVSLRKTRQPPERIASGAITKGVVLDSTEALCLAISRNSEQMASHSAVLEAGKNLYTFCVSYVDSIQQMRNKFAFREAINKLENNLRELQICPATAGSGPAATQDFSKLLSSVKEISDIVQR

Compound	IC50 [2, 12]	IC50 ([1]; PBMC)	SI (selectivity index) [2]	also measured
CC1(C)[C@@H](O)CC[C@]2(C)[C@H]3C(=O)C=C4[C@@H]5C[C@@](C)(C(=O)OCc6ccccc6)CC[C@]5(C)CC[C@@]4(C)[C@]3(C)CC[C@@H]12 [PT3, Glycyrrhetic acid benzyl ester]		> 100 µM	>1.44	IC50 ([2]; Homo sapiens, K562, 24 h): 69.5 ± 8.43 µM
CC1(C)CC[C@]2(C(=O)OCc3ccccc3)CC[C@]3(C)C(=CC[C@@H]4[C@@]5(C)CC[C@H](O)C(C)(C)[C@@H]5CC[C@]43C)[C@@H]2C1 [PT5, Oleanolic acid benzyl ester]	~5.5 µM	50.2 ± 4.58 µM	9.19	ERK phosphorylation (phosphorylated ERK1/2) [3]: inhibitory effect of ERK phosphorylation; amount of ERK1/2 [3]: moderately decreased; IC50 [4]: 67 ± 4.19 µM; apoptotic effects on CML cell line [5]: 14%; late apoptotic/necrotic effects [5]: 11%; activity against A549 cell line at 100 µM ([6]; 100 µM): inactive; IC50 [6]: > 100 µM; IC50 [7]: 34.7 ± 3.85 µM; IC50 [8]: 53.9 ± 6.46 µM; IC50 [9]: 15.7 ± 1.36 µM; IC50 ([2]; MTT, 24 h exposure): 5.46 ± 1.51 µM; IC50 [10]: 1.44 ± 0.12 µM; ABL kinase IC50 potency relative to 1c ([10]; fold vs 1c): six times stronger; also recorded: about sixfold; IC50 [11]: 13.8 ± 1.58 µM
gypsogenin [GP, reference compound]				IC50 [1]: > 100 µM; IC50 ([2]; MTT, 24 h exposure): 12.7 ± 2.15 µM
CC1(C)CC[C@]2(C(=O)O)CC[C@]3(C)C(=CC[C@@H]4[C@@]5(C)CC[C@H](O)C(C)(C)[C@@H]5CC[C@]43C)[C@@H]2C1 [OA, oleanolic acid, reference compound]	~13 µM	> 100 µM		IC50 ([2]; MTT, 24 h exposure): 13.5 ± 2.55 µM
CC1(C)CC[C@]2(C(=O)O)CC[C@]3(C)C(=CC[C@@H]4[C@@]5(C)CC[C@H](O)[C@@](C)(CO)[C@@H]5CC[C@]43C)[C@@H]2C1 [HE, hederagenin, reference compound]	> 100 µM	> 100 µM	>1	
CC1(C)[C@@H](O)CC[C@]2(C)[C@H]3C(=O)C=C4[C@@H]5C[C@@](C)(C(=O)O)CC[C@]5(C)CC[C@@]4(C)[C@]3(C)CC[C@@H]12 [GA, glycyrrhetinic acid, reference compound]	41 ± 5.34 µM	> 100 µM	>2.43	
Cc1ccc(NC(=O)c2ccc(CN3CCN(C)CC3)cc2)cc1Nc1nccc(-c2cccnc2)n1 [Imatinib, reference compound]				apoptotic effects on CML cell line [5]: 18%; late apoptotic/necrotic effects [5]: 5.6%
C[C@H]1[C@H](C)CC[C@]2(C(=O)O)CC[C@]3(C)C(=CC[C@@H]4[C@@]5(C)CC[C@H](O)C(C)(C)[C@@H]5CC[C@]43C)[C@H]12 [UA, ursolic acid, reference compound]	16.5 ± 1.13 µM	> 100 µM	>6.06	
C=C(C)[C@@H]1CC[C@]2(C(=O)O)CC[C@]3(C)[C@H](CC[C@@H]4[C@@]5(C)CC[C@H](O)C(C)(C)[C@@H]5CC[C@]43C)[C@@H]12 [BA, betulinic acid, reference compound]	52.3 ± 4.79 µM	> 100 µM	>1.91	
C[C@H]1[C@H](C)CC[C@]2(C(=O)O)CC[C@]3(C)C(=CC[C@@H]4[C@@]5(C)C[C@@H](O)[C@H](O)[C@@](C)(CO)[C@@H]5CC[C@]43C)[C@H]12 [AA, asiatic acid, reference compound]	29.3 ± 3.42 µM	> 100 µM	>3.41	
C=C(C)[C@@H]1CC[C@]2(C(=O)OCc3ccccc3)CC[C@]3(C)[C@H](CC[C@@H]4[C@@]5(C)CC[C@H](O)C(C)(C)[C@@H]5CC[C@]43C)[C@@H]12 [PT2, Betulinic acid benzyl ester]	8.49 ± 1.22 µM	28 ± 2.74 µM	3.29	

Now from value to compound, other results behind:

IC50 [2, 12]	Compound	IC50 ([1]; PBMC)	SI (selectivity index) [2]	also measured
21.8 ± 1.24 µM	C[C@H]1[C@H](C)CC[C@]2(C(=O)OCc3ccccc3)CC[C@]3(C)C(=CC[C@@H]4[C@@]5(C)CC[C@H](O)C(C)(C)[C@@H]5CC[C@]43C)[C@H]12 [PT6, Ursolic acid benzyl ester]	43.3 ± 1.93 µM	1.99	
5.13 ± 1.38 µM	CC1(C)CC[C@]2(C(=O)OCc3cc(F)cc(F)c3)CC[C@]3(C)C(=CC[C@@H]4[C@@]5(C)CC[C@H](O)[C@@](C)(C=O)[C@@H]5CC[C@]43C)[C@@H]2C1 [GP4, Gypsogenin 3,5-difluorobenzyl ester]	28.3 ± 2.25 µM	5.51	melting point: 58 to 60 °C
3.19 ± 1.21 µM	CC1(C)CC[C@]2(C(=O)OCc3ccc(C#N)cc3)CC[C@]3(C)C(=CC[C@@H]4[C@@]5(C)CC[C@H](O)[C@@](C)(C=O)[C@@H]5CC[C@]43C)[C@@H]2C1 [GP5, Gypsogenin 4-cyanobenzyl ester]	25.6 ± 2.18 µM	8.03	melting point: 175 to 177 °C; ERK phosphorylation (phosphorylated ERK1/2) [3]: inhibitory effect of ERK phosphorylation; amount of ERK1/2 [3]: moderately decreased; IC50 [4]: 5.66 ± 0.32 µM; apoptotic effects on CML cell line [5]: 9.5%; late apoptotic/necrotic effects [5]: 5.1%; IC50 [6]: 24.6 ± 1.94 µM; IC50 [7]: 7.26 ± 0.97 µM; IC50 [8]: 15.3 ± 2.11 µM; IC50 [9]: 4.36 ± 0.28 µM; IC50 [10]: 6.16 ± 0.63 µM; IC50 [11]: 4.83 ± 0.35 µM
4.1 ± 0.85 µM	C[C@H]1[C@H](C)CC[C@]2(C(=O)OCc3ccccc3)CC[C@]3(C)C(=CC[C@@H]4[C@@]5(C)C[C@@H](O)[C@H](O)[C@@](C)(CO)[C@@H]5CC[C@]43C)[C@H]12 [PT1, Asiatic acid benzyl ester]	15.5 ± 1.08 µM	3.79	
5.53 ± 1.78 µM	COc1ccc(COC(=O)[C@]23CCC(C)(C)C[C@H]2C2=CC[C@@H]4[C@@]5(C)CC[C@H](O)[C@@](C)(C=O)[C@@H]5CC[C@@]4(C)[C@]2(C)CC3)cc1 [GP1, Gypsogenin 4-methoxybenzyl ester]	25.1 ± 2.92 µM	4.53	melting point: 78 to 80 °C
4.58 ± 1.49 µM	CC1(C)CC[C@]2(C(=O)OCc3ccc(C(F)(F)F)cc3)CC[C@]3(C)C(=CC[C@@H]4[C@@]5(C)CC[C@H](O)[C@@](C)(C=O)[C@@H]5CC[C@]43C)[C@@H]2C1 [GP3, Gypsogenin 4-trifluoromethyl benzyl ester]	23.2 ± 3.08 µM	5.07	melting point: 175 to 177 °C
6.48 ± 1.27 µM	CC1(C)CC[C@]2(C(=O)OCc3ccccc3)CC[C@]3(C)C(=CC[C@@H]4[C@@]5(C)CC[C@H](O)[C@@](C)(CO)[C@@H]5CC[C@]43C)[C@@H]2C1 [PT4, Hederagenin benzyl ester]	23.1 ± 3.11 µM	3.56	cytotoxicity on K562 relative to parent triterpene HE ([2]; fold vs HE): more than 15 times
